One assay concerns H358 (lung). Put plainly: CellTiterGlo Cell Proliferation Assay (2D), H358. Particulars: Homo sapiens, NCI-H358, 96 hours. The assay is classed as cell-based. The protocol:
(§1) The purpose of this assay is to evaluate the growth of KRas G12C mutant tumor lines following treatment with a test compound. A panel of tumor cell lines harboring KRas G12C or other KRas mutations are collected (Table 25). All cell lines are from ATCC or other sources indicated.
(§2) Typically cells are cultured in RPMI1640 or Dulbecco's modified Eagle's medium (DMEM, GIBCO) supplemented with 10% FBS (GIBCO, Invitrogen). […] The cells are treated with compound for 96 hours, and then are analyzed for viability using the CellTiterGlo® Luminescent Cell Viability Assay® (Promega #G7572 for 2D) according to manufacturer's instructions and an EnVision™ plate reader. Nonlinear regression and sigmoidal dose-response curves are used to calculate the half maximal inhibitory concentration (IC50) with GraphPad Prism 4® software.

For another assay, the system named is SW1463 (colon). As to the kind of experiment: CellTiterGlo Cell Proliferation Assay (2D), SW1463. In kind it is cell-based. Particulars: Homo sapiens, 96 hours. The protocol: as §1, §2
The subject of the next assay is MiaPaca-2 (pancr). Put plainly: CellTiterGlo Cell Proliferation Assay (2D), MiaPaca-2. The assay is classed as cell-based. The settings on record: Homo sapiens, MIA PaCa-2, 96 hours. As for the experimental part:
as §1, §2
In general terms: In ATP-based viability assays light output follows the ATP content of the culture.

The subject of the next assay is HCC44 (lung). As to the kind of experiment: CellTiterGlo Cell Proliferation Assay (2D), HCC44. In kind it is cell-based. The settings on record: Homo sapiens, 96 hours. As for the experimental part:
as §1, §2

For another assay, the system named is H2122 (lung). As to the kind of experiment: CellTiterGlo Cell Proliferation Assay (2D), H2122. In kind it is cell-based. Particulars: Homo sapiens, NCI-H2122, 96 hours. As for the experimental part:
as §1, §2

The test system of another assay is Calu-1 (lung). As to the kind of experiment: CellTiterGlo Cell Proliferation Assay (2D), Calu-1. The assay is classed as cell-based. Particulars: Homo sapiens, 96 hours. The protocol: as §1, §2
The test system of another assay is H1792 (lung). Put plainly: CellTiterGlo Cell Proliferation Assay (2D), H1792. Particulars: Homo sapiens, NCI-H1792, 96 hours. The assay is classed as cell-based. The protocol:
as §1, §2

The subject of the next assay is UM-UC-3 (bladder). Put plainly: CellTiterGlo Cell Proliferation Assay (2D), UM-UC-3. The assay is classed as cell-based. Particulars: Homo sapiens, UMUC3, 96 hours. As for the experimental part: as §1, §2
A further assay concerns H2030 (lung). As to the kind of experiment: CellTiterGlo Cell Proliferation Assay (2D), H2030. The assay is classed as cell-based. Particulars: Homo sapiens, NCI-H2030, 96 hours. As for the experimental part: as §1, §2
For the next assay, the system named is H358 xenograft. Put plainly: Anti-tumor growth activity in lung cancer H358 xenograft mouse model. In kind it is in vivo. As for the experimental part:
The purpose of this assay is to determine anti-tumor activities of test compounds (Example 34, 35, and 36) in a lung cancer H358 mouse xenograft model. H358 lung tumor cells (10×10^6) are implanted by subcutaneous injection in hind leg of nude female mice (Taconic Biosciences). A total of 4 mice in each group are used for the efficacy study. Treatment is initiated with oral administration (gavage) of the test compound or vehicle (20% Captisol®, 25 mM phosphate, pH 2.0 in 0.2 mL volume) once or twice daily for 28 days when the tumor size reaches approximately 300 mg. Tumor growth and body weight are monitored over time to evaluate efficacy and signs of toxicity. […] No significant animal body weight loss was observed through the whole study for these compounds.

For a further assay, the target named is active KRas (Homo sapiens, UniProt P01116, G12C). As to the kind of experiment: In vivo target inhibition, active KRas ELISA of tumor lysates, lung cancer H358 xenograft model. Also on record: from tissue; host or cells: H358 xenograft tumours grown subcutaneously in nude female mice. Particulars: NCI-H358, mouse; for inhibition at 30 mg/kg: H358 model, single dose 30 mg/kg, read-out: % Inhibition of Active Ras. As for the experimental part:
The purpose of these assays is to evaluate in vivo target inhibition of an orally administered test compound. Human lung cancer H358 cells, or pancreatic cancer MiaPaca-2 cells, are implanted into nude mice xenograft tumor models. H358 or MiaPaca-2 cells (10×106 in a 1:1 Matrigel® mix, 0.2 mL total volume) are implanted by subcutaneous injection in hind leg of nude female mice (Harlan Laboratories). […] Treatment is initiated with oral administration (gavage) of a test compound or vehicle (20% Captisol®, 25 mM phosphate, pH 2.0 in 0.2 mL) when the tumor size reaches approximately 300 mg.
For in vivo target inhibition and PD analysis, tumors are ground by mortar and pestle on dry ice and tumor fragments are added to 800 μL of lysis buffer containing 1% Triton™ X-100, 25 mM Tris pH7.5, 150 mM sodium chloride, 1 mM EDTA, and 1 mM EGTA with Halt protease and phosphatase inhibitor cocktail (Thermo Scientific, cat. no. 1861281) in lysing matrix D tubes (MP Biomedical®, cat. no. 6913-500) with one additional large bead (MP Biomedical® ¼″ ceramic sphere bead cat. no. 6540-412) per tube. Tumor fragments are homogenized in a Thermo Bio101® fast prep (FP120) at setting 4 for […] while cold for a total of 2 times. Lysates are spun at 14,000 rpm for 10 minutes at 4° C. to clarify. Protein estimation is done on the lysate supernatant using a BioRad Dc® protein assay and lysates are diluted in complete lysis/binding buffer from the Ras GTPase Chemi ELISA Kit® (Active Motif, cat. no. 52097). The active KRas ELISA is performed as follows: glutathione-coated ELISA wells are incubated with diluted RAF1-GST in complete lysis/binding buffer for 1 hour at 4° C. with gentle agitation. Wells are washed 3 times with wash buffer and 100 μg of lysates are added to each well and incubated at ambient temperature for 1 hour with mild agitation. The wells are washed an additional 3 times, then primary antibody, diluted in antibody binding buffer, is added to each well. The plates are incubated for 1 hour. The wells are washed 3 more times before adding HRP-conjugated secondary antibody, diluted in antibody binding buffer, to each well. The plates are incubated at ambient temperature for 1 hour. ELISA wells are washed 4 times, chemiluminescent reagent is added and then luminescence is read. For pERK Meso Scale Discovery ELISA, 25 μg of protein containing 0.1% SDS is used; Meso Scale Discovery Whole Cell Lysate Kit for pERK is provided by Meso Scale Discovery.
The purpose of this assay is to evaluate the dose dependent in vivo target inhibition and pharmacodynamic effects in a lung cancer model. The test compound is dosed in lung cancer H358 mouse xenograft model at a dose range from 12.5 to 100 mg/kg. The tumor samples are collected 8 hours post a single dose. The tumor lysates are prepared and the inhibition of pERKand active KRas is measured as described above.
The purpose of this assay is to evaluate the time dependent in vivo target inhibition and pharmacodynamic effects in a lung cancer model. […] After a single dose, the tumor samples are harvested at 2, 4, 8, 12 and 24 hour post doing. The tumor lysates are prepared and the inhibition of pERK and active KRas is measured as described above.
A general note: An ELISA detects its analyte on a solid surface through an enzyme-linked reagent.

Read-outs that look alike come from different tables or passages of the source.

active KRas, sequence (P01116 1-188 isoform P01116-2 G12C): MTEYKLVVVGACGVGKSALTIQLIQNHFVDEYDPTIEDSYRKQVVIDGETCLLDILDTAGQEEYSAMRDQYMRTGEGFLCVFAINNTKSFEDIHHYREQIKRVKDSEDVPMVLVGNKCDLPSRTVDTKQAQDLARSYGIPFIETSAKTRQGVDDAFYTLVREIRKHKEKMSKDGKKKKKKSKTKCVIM

Broadly, the IC50 is the concentration needed to halve the response being measured. A low value points to higher potency. The inhibition is the drop in the measured response relative to a control, in per cent. Regarding `C=CC(=O)N1CCN2C(=O)c3cc(F)c(-c4cccc5sc(N)c(C#N)c45)c(Cl)c3OCC[C@H]2C1` [Example 34, 4-[(13aS)-10-Chloro-8-fluoro-6-oxo-2-prop-2-enoyl-1,3,4,12,13,13a-hexahydropyrazino[2,1-d][1,5]benzoxazocin-9-yl]-2-amino-benzothiophene-3-carbonitrile], the IC50 in the assay with H358 (lung) is 0.002 µM; in the assay with SW1463 (colon), 0.004 µM; with MiaPaca-2 (pancr), 0.01 µM; in the assay on HCC44 (lung), greater than 10 µM; in the assay on H2122 (lung) it was 0.66 µM; with Calu-1 (lung) it was 1.14 µM. Besides, the figures for the IC50 in the assay on H1792 (lung), in the assay with UM-UC-3 (bladder) and with H2030 (lung) were 4.35 µM, 0.51 µM and greater than 10 µM, respectively. Besides, the inhibition at 10 µM amounted to 95.6% in the assay with H358 (lung); 90.1% with SW1463 (colon); 82.9% with MiaPaca-2 (pancr); 41% in the assay with HCC44 (lung); 78.1% in the assay on H2122 (lung); 50.6% in the assay with Calu-1 (lung). For the same compound, the results for the inhibition at 10 µM with H1792 (lung), in the assay with UM-UC-3 (bladder) and with H2030 (lung) were 56.7%, 56.1% and 41.1%, respectively. Moreover, the “% Regression (Day 12)” value with H358 xenograft (100 mg/kg PO, QD) is recorded as −30.96%. Moreover, in the assay on H358 xenograft (100 mg/kg PO, QD, Day 26), the “% Regression (Day 26)” value is given as −6.28%. For the same compound, at active KRas (po, H358 xenograft mice, single oral dose 12.5 mg/kg, 8 hours, read-out: % Inhibition Active RAS), the inhibition at 12.5 mg/kg was 14.2%. The inhibition at 25 mg/kg at active KRas (po, H358 xenograft mice, single oral dose 25 mg/kg, 8 hours, read-out: % Inhibition Active RAS) amounted to 35.1%. The inhibition at 50 mg/kg on active KRas (po, H358 xenograft mice, single oral dose 50 mg/kg, 8 hours, read-out: % Inhibition Active RAS) was found to be 31.5%. Moreover, the inhibition at 100 mg/kg on active KRas (po, H358 xenograft mice, single oral dose 100 mg/kg, 8 hours, read-out: % Inhibition Active RAS) was found to be 69.3%.
Consider `C=CC(=O)N1CCN2C(=O)c3cc(F)c(-c4ccc(F)c5sc(N)c(C#N)c45)c(Cl)c3OC[C@H]2C1` [Example 36, 4-[(4aR)-7-Chloro-9-fluoro-11-oxo-3-prop-2-enoyl-2,4,4a,5-tetrahydro-1H-pyrazino[2,1-c][1,4]benzoxazepine-8-yl]-2-amino-7-fluoro-benzothiophene-3-carbonitrile], for which the 50% inhibitory concentration (IC50) with H358 (lung) came to 0.008 µM; in the assay on SW1463 (colon) it was 0.014 µM; in the assay with MiaPaca-2 (pancr) it was 0.081 µM; in the assay on HCC44 (lung), 2.84 µM; with H2122 (lung), 1.36 µM; in the assay on Calu-1 (lung), 2.93 µM. The half-maximal inhibitory concentration (IC50) with H1792 (lung) was 2.03 µM; with UM-UC-3 (bladder) it was 1.86 µM; in the assay on H2030 (lung) it was greater than 10 µM. Also, the inhibition at 10 µM amounted to 89.1% in the assay on H358 (lung); 82.7% in the assay on SW1463 (colon); 79.6% in the assay with MiaPaca-2 (pancr); 80.6% with HCC44 (lung); 92.8% in the assay with H2122 (lung); 77.4% in the assay with Calu-1 (lung). Also, the results for the inhibition at 10 µM in the assay with H1792 (lung), with UM-UC-3 (bladder) and in the assay on H2030 (lung) were 97.4%, 91.6% and 55.8%, respectively. Further, the “% Regression (Day 12)” value in the assay on H358 xenograft (30 mg/kg PO, BID) is reported as −68.96%. The inhibition at 30 mg/kg on active KRas (2 h) amounted to 72.6%; on active KRas (4 h), 72.4%; on active KRas (8 h), 88.5%; on active KRas (24 h) it was 43.2%.

Source of the values: patent US20230339968A1, “KRAS Gl2C INHIBITORS” (Eli Lilly and Company, priority 2019, published 2023).
